For one test, the system named is A549, H1975 and HCC827. As to the kind of experiment: carboplatin-DNA monoadducts by AMS, average of resistant NSCLC lines. In kind it is cell-based, human. Particulars: three resistant cell lines. As for the experimental part: NSCLC cell lines were cultured to >90% confluence, dosed with [^14C]carboplatin, and subjected to DNA isolation and AMS analysis. 60 mm dishes were seeded at a density of 1×10^6 cells/dish and allowed to attach overnight in a 37° C. humidified atmosphere containing 5% CO2. At hour 0, cells were dosed with 1 μM (relevant microdose concentration) or 100 μM carboplatin (therapeutically relevant concentration), each comprising 0.3 μM [^14C]carboplatin (50,000 dpm/ml). Cells were incubated with [^14C]carboplatin for 4 h before washing and cultured with carboplatin-free medium to mimic the in vivo carboplatin half-life (1.3-6 hours) in patients. DNA was harvested from the cell lines at hours 0, 2, 4, 8 and 24 hours after initial dosing. Ten micrograms of DNA per sample was converted to graphite and measured by AMS for ^14C/total C quantification. Triplicate sets of AMS experiments were performed for each cell line and time point. The 14C/total C ratio was converted to 14C atoms per DNA base-pair according to the algorithm described herein to provide values of carboplatin-DNA monoadducts per 10^8 nucleotides. The data was plotted as carboplatin-DNA monoadducts per 10^8 nucleotide (nt) vs time (FIGS. 8A and 8B). There was a time-dependent increase in the carboplatin-DNA monoadduct concentration during the first 4 hours of incubation with therapeutic or microdosing carboplatin (FIGS. 8A and 8B). […]

The next test relates to 5637. As to the kind of experiment: MTT assay IC50, bladder cancer cell line. It is filed as cell-based, human. As to conditions: 72 hours. The method, then:
Thus, we measured the IC50 of the six NSCLC cell lines from Example 2 to both cisplatin and carboplatin to determine if the sensitivity of these six NSCLC cell lines to the two drugs are correlated.
Drug-DNA adduct formation and repair was measured by accelerator mass spectrometry.
These two cell lines were also cultured with a range of concentrations of cisplatin, carboplatin, gemcitabine, doxorubicin, methotrexate and vinblastine for 72 hours to determine IC50 for these other drugs (FIG. 16C). These drugs were chosen because of their frequent use in the treatment of bladder cancer.
A general note: Tetrazolium dyes change colour on reduction, which living cells bring about.

Another test relates to A549 tumor xenograph. As to the kind of experiment: tumor response to therapeutic carboplatin. In kind it is in vivo, nude mice. Particulars: resistant A549 xenograph; single IV 37.3 mg/kg; 14 days. The text has this:
Xenograft mouse tumors consisting of one carboplatin resistant and one sensitive tumor type were established for in vivo evaluation of carboplatin-DNA monoadduct formation and repair in tumor tissue and for in vivo evaluation of tumor response to therapeutic dosing with carboplatin. Tumor xenografts were established in 1-2 month old nude mice by injecting approximately one million cells into the left and right flanks, and allowed to develop tumors of less than 1 cm^3 over approximately 4 weeks prior to DNA adduct studies. Mice bearing resistant and sensitive tumors were exposed to either a microdose or therapeutic dose of carboplatin by tail vein injection. DNA isolated from tumor tissue was evaluated for carboplatin-DNA monoadduct frequency levels as a function of time. For tumor response, mice bearing resistant and sensitive tumors were therapeutically treated with a single IV injection of 37.3 mg/kg of carboplatin and then examined for tumor growth as assessed by measuring palpable tumors with a caliper and calculating tumor volume.
Mice xenografted with sensitive (H232A) and resistant (A549) lung cancer cell lines were infused with a therapeutic dose of carboplatin to assess tumor response. The tumors were measured daily over 14 days post infusion (FIG. 10C). Tumor size was normalized as the ratio of tumor diameter to the tumor diameter measured on day 0 (no change=1.0). […]

For `N.N.O=C([O-])C1(C(=O)[O-])CCC1.[Pt+2]` [carboplatin], the “average area under curve (AUC) of carboplatin-DNA monoadducts” value was 43.36±9.55 hr-monoadducts per 10^8 nt in the test with A549, H1975 and HCC827 (microdosing); 3916.7±1280.0 hr-monoadducts per 10^8 nt in the test with A549, H1975 and HCC827 (therapeutic dosing). For the same molecule, the IC50 (usually the concentration needed to halve the response being measured) came to 24.3 µM with 5637 and 24.35 ± 0.12 µM in the test on 5637 (listed as Carboplatin). Besides, in the test on A549 tumor xenograph, the “tumor response (growth after chemotherapy)” value is given as “continued to grow”.
